molecular target: T1, Capsid scaffolding protein (Herpes simplex virus (type 1 / strain 17), UniProt P10210); experiment: Inhibitory activity against herpes simplex type 1 protease (HSV-1 pr).
T1 sequence (P10210 whole entry): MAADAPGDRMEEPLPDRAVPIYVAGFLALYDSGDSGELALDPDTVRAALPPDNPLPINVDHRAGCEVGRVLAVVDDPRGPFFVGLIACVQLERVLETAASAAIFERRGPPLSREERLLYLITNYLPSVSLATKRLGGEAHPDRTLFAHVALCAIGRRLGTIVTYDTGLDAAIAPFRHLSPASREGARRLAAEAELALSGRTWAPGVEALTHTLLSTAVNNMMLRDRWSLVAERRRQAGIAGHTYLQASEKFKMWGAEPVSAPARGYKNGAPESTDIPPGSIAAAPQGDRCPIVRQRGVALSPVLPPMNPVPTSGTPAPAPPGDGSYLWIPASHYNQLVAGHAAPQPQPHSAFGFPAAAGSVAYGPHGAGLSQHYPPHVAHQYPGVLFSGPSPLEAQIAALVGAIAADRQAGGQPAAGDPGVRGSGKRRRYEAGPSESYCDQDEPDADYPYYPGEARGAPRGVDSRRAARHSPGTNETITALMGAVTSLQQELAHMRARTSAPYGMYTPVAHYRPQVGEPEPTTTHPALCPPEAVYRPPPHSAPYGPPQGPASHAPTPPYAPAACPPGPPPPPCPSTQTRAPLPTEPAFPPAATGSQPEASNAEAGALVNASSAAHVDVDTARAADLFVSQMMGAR

Structure (SMILES)	IC50 [µM]
CC(C)Nc1nc2cc(N)ccc2c(=O)o1	55
C[C@H](NC(=O)OCc1ccccc1)c1nc2cc(N)ccc2c(=O)o1	150
CCOc1nc2c(Cl)ccc(Cl)c2c(=O)o1	1.5
C[C@@H](NC(=O)OCc1ccccc1)c1nc2cccc(F)c2c(=O)o1	200
CC(C)Nc1nc2ccccc2c(=O)o1	25
CCc1cccc2nc([C@H](C)NC(=O)OCc3ccccc3)oc(=O)c12	> 300
CCOc1nc2ccccc2c(=O)o1	25
Cc1cccc2nc([C@H](C)NC(=O)OCc3ccccc3)oc(=O)c12	120
C[C@H](NC(=O)OCc1ccccc1)c1nc2ccccc2c(=O)o1	50
CCOc1nc2cccc(CC)c2c(=O)o1	20
CC(NC(=O)OCc1ccccc1)C(=O)Nc1ccc2c(=O)oc([C@H](C)NC(=O)OCc3ccccc3)nc2c1 (stereo partly drawn)	12
CCOc1nc2cccc(Cl)c2c(=O)o1	7
CC(C)Nc1nc2cc(NC(=O)C(CC(N)=O)NC(=O)OCc3ccccc3)ccc2c(=O)o1 (stereo not drawn)	15
COc1ccc(Oc2nc3ccccc3c(=O)o2)cc1	2.5
C[C@H](NC(=O)OCc1ccccc1)c1nc2cccc(Cl)c2c(=O)o1	> 300
CCCCNc1nc2ccccc2c(=O)o1	300
CCOc1nc2cccc(F)c2c(=O)o1	75
CC(C)Nc1nc2cc(NC(=O)C(C)NC(=O)OCc3ccccc3)ccc2c(=O)o1 (stereo not drawn)	5
CCOc1nc2cccc(C)c2c(=O)o1	15
O=c1oc(Oc2ccccc2)nc2ccccc12	10
C=CCOc1nc2ccccc2c(=O)o1	15
CC(Nc1nc2ccccc2c(=O)o1)c1ccccc1 (stereo not drawn)	60
COC(=O)C(C)Nc1nc2ccccc2c(=O)o1 (stereo not drawn)	25
C[C@H](NC(=O)OCc1ccccc1)c1nc2cccc(F)c2c(=O)o1	50
CC(C)COC(=O)Nc1ccc2c(=O)oc(NC(C)C)nc2c1	50
O=c1oc(Nc2cccc(F)c2)nc2ccccc12	> 300

system: not listed separately; experiment: Half-life in aqueous solution.; type: ADME

Structure (SMILES)	half-life [h]
CCOc1nc2c(Cl)ccc(Cl)c2c(=O)o1	1
CC(C)Nc1nc2cc(NC(=O)C(C)NC(=O)OCc3ccccc3)ccc2c(=O)o1 (stereo not drawn)	171

From ChEMBL document CHEMBL1151516, “Inhibition of HSV-1 protease by benzoxazinones” (Bioorg Med Chem Lett, 1996)
